Structures are written as SMILES.

The target of the assay is T1, hKv3.1b (Homo sapiens, UniProt P48547).
T1 construct: expressed in transfected cells
T1 sequence (P48547 1-585 isoform P48547-2): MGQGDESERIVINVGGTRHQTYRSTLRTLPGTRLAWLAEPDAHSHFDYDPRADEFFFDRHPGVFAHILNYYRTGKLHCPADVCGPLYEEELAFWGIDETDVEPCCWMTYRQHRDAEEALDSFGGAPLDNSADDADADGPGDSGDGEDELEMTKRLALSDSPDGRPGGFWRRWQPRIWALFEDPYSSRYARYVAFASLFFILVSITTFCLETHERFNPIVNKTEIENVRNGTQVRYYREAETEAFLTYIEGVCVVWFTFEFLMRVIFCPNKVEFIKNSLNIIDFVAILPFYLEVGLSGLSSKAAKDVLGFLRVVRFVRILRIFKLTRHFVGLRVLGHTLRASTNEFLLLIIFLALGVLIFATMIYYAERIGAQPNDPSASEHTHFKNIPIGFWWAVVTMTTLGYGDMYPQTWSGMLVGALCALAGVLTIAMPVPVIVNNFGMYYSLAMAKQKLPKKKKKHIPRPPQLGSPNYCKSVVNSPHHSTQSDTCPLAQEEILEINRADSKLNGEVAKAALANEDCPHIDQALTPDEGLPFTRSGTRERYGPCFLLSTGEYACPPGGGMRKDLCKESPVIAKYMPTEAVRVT
In words: Automated whole-cell patch-clamp (QPatch-16x) on HEK-293 cells stably expressing hKv3.1b: shift of voltage threshold for channel activation. The format is cell-based. Particulars: HEK-293 hKv3.1b; for ECdelta5mV: concentration needed to shift the threshold 5 mV, read out from fitted concentration response curve; for Max Delta threshold: maximum absolute shift of activation threshold to more hyperpolarized potentials at the tested concentrations (0.37, 1.11, 3.33, 10, 30 μM). As to the method:
HEK-293 cells stably expressing hKv3.1b was used for the experiments. Cells were cultured in DMEM medium supplemented with 10% Fetal Bovine Serum, 100 ug/mL Geneticidin and 100 u/mL Penicillin/Streptomycin (all from Gibco). Cells were grown to 80-90% confluency at 37° C. and 5% CO2. On the day of the experiment the cells were detached from the tissue culture flasks by Detachin and resuspended in serum free medium containing 25 mM HEPES and transferred to the cell hotel of the QPatch. The cells were used for experiments 0-5 hours after detachment.
Patch-clamp recordings were performed using the automated recording system QPatch-16x (Sophion Bioscience, Denmark). Cells were centrifuged, SFM removed and the cells were resuspended in extracellular buffer containing (in mM): 145 NaCl, 4 KCl, 1 MgCl2, 2 CaCl2, 10 HEPES and 10 glucose (added fresh on the day of experiment); pH 7.4 adjusted with NaOH, 305 mOsm adjusted with sucrose.
Single cell whole-cell recordings were carried out using an intracellular solution containing (in mM): 120 KCl, 32.25/10 KOH/EGTA, 5.374 CaCl2, 1.75 MgCl2, 10 HEPES, 4 Na2ATP (added fresh on the day), pH 7.2 adjusted with KOH, […] adjusted with sucrose. Cell membrane potentials were held at −80 mV and currents were evoked by voltage steps (200 ms duration) from −70 mV to +10 mV (in 10 mV increments).
Leak subtraction protocol was applied at −33% of the sweep amplitude, and serial resistance values were constantly monitored.
Any cell where serial resistance exceeded 25 MOhm, membrane resistance less than 200 MOhm or current size at −10 mV less than 200 pA was eliminated from the subsequent analysis.
Data analysis was performed using Sophion's QPatch assay software in combination with Microsoft Excel™ (Redmond, Wash., USA).
Current voltage relationships were plotted from the peak current at the individual voltage steps normalized to the vehicle addition at 10 mV. The voltage threshold for channel activation was defined as 5% activation of the peak current at 10 mV in presence of vehicle. The activity of the compounds was described as the ability to shift this current voltage relationship to more hyperpolarized potentials and is given as the maximum absolute shift possible at the tested concentrations (0.37, 1.11, 3.33, 10, 30 μM). Concentration response curves were plotted from the threshold shift at the individual concentrations and were fitted excel fit model 205 sigmodal dose-response model (fit=A+((B−A)/1+((C/x)^D)))), where A is the minimum value, B the maximum value, C the EC50 value and D the slope of the curve. The concentration needed to shift the threshold 5 mV was readout from this curve (ECdelta 5 mV).

In the case of `Cc1ccc(S(=O)(=O)n2ccc(C(=O)NCc3nc(C)no3)n2)cc1` [Compound 48, 1-(4-methylbenzene-1-sulfonyl)-N-[(3-methyl-1,2,4-oxadiazol-5-yl)methyl]-1H-pyrazole-3-carboxamide], the ECdelta5mV was 1500 nM and the “Max Delta threshold” value was determined as 24 mV.

Turning to `Cc1ccc(S(=O)(=O)n2ccc(C(=O)NCc3cocn3)n2)cc1` [Compound 49, 1-(4-methylbenzene-1-sulfonyl)-N-[(1,3-oxazol-4-yl)methyl]-1H-pyrazole-3-carboxamide], the ECdelta5mV turned out to be 2000 nM and the “Max Delta threshold” value was found to be 19 mV.

`Cc1ccc(S(=O)(=O)n2ccc(C(=O)NCc3cnc(C)nc3)n2)cc1` [Compound 50, 1-(4-methylbenzene-1-sulfonyl)-N-[(2-methylpyrimidin-5-yl)methyl]-1H-pyrazole-3-carboxamide]: the ECdelta5mV amounted to 1700 nM and the “Max Delta threshold” value amounted to 24 mV.

For the molecule `Cc1ccc(S(=O)(=O)n2ccc(C(=O)NCc3cnoc3)n2)cc1` [Compound 51, 1-(4-methylbenzene-1-sulfonyl)-N-[(1,2-oxazol-4-yl)methyl]-1H-pyrazole-3-carboxamide], the ECdelta5mV amounted to 3300 nM and the “Max Delta threshold” value was 16 mV.

In the case of `Cc1ccc(S(=O)(=O)n2ccc(C(=O)NCc3cscn3)n2)cc1` [Compound 52, 1-(4-methylbenzene-1-sulfonyl)-N-[(1,3-thiazol-4-yl)methyl]-1H-pyrazole-3-carboxamide], the ECdelta5mV was 1500 nM and the “Max Delta threshold” value came to 16 mV.

As for `Cc1ccc(S(=O)(=O)n2ccc(C(=O)NCc3cn(C)cn3)n2)cc1` [Compound 53, 1-(4-methylbenzene-1-sulfonyl)-N-[(1-methyl-1H-imidazol-4-yl)methyl]-1H-pyrazole-3-carboxamide], the ECdelta5mV came to 1900 nM and the “Max Delta threshold” value amounted to 20 mV.

Take `Cc1ccc(S(=O)(=O)n2ccc(C(=O)NCc3cncnc3)n2)cc1` [Compound 54, 1-(4-methylbenzene-1-sulfonyl)-N-[(pyrimidin-5-yl)methyl]-1H-pyrazole-3-carboxamide]: the ECdelta5mV worked out at 2400 nM and the “Max Delta threshold” value is reported as 21 mV.

Take `Cc1ccc(S(=O)(=O)n2ccc(C(=O)NCc3ccno3)n2)cc1` [Compound 55, 1-(4-methylbenzene-1-sulfonyl)-N-[(1,2-oxazol-5-yl)methyl]-1H-pyrazole-3-carboxamide]: the ECdelta5mV is 1800 nM and the “Max Delta threshold” value was 20 mV.

Take `Cc1ccc(S(=O)(=O)n2ccc(C(=O)NCc3ncon3)n2)cc1` [Compound 57, 1-(4-methylbenzene-1-sulfonyl)-N-[(1,2,4-oxadiazol-3-yl)methyl]-1H-pyrazole-3-carboxamide]: the ECdelta5mV is 4900 nM and the “Max Delta threshold” value came out at 13 mV.

Take `Cc1ccc(S(=O)(=O)n2ccc(C(=O)NCc3ccon3)n2)cc1` [Compound 58, 1-(4-methylbenzene-1-sulfonyl)-N-[(1,2-oxazol-3-yl)methyl]-1H-pyrazole-3-carboxamide]: the ECdelta5mV is on record as 2000 nM and the “Max Delta threshold” value is 17 mV.

For the molecule `Cc1ccc(S(=O)(=O)n2ccc(C(=O)NCc3nccs3)n2)cc1` [Compound 59, 1-(4-methylbenzene-1-sulfonyl)-N-[(1,3-thiazol-2-yl)methyl]-1H-pyrazole-3-carboxamide], the ECdelta5mV amounted to 3000 nM and the “Max Delta threshold” value amounted to 14 mV.

Turning to `Cc1ccc(S(=O)(=O)n2ccc(C(=O)NCc3ncn(C)n3)n2)cc1` [Compound 60, 1-(4-methylbenzene-1-sulfonyl)-N-[(1-methyl-1H-1,2,4-triazol-3-yl)methyl]-1H-pyrazole-3-carboxamide], the ECdelta5mV turned out to be 2900 nM and the “Max Delta threshold” value is listed as 18 mV.
